Legend:
Type in all cases: physicochemical
[1] = Hygroscopicity study of crystal forms (dynamic vapour sorption, 25° C.); settings: for Crystal form after hygroscopicity test: two cycles
Description: According to the “9103 Guideline for Hygroscopicity for Pharmaceuticals” in Part IV of the 2015 edition of the Chinese Pharmacopoeia, descriptions of hygroscopic characteristics and definitions of hygroscopic weight gain are as follows; • Deliquescent: Absorbs sufficient moisture to form a liquid; • Extremely hygroscopic: Hygroscopic weight gain is no less than 15%; • Hygroscopic: Hygroscopic weight gain is less than 15% but no less than 2%; • Slightly hygroscopic: Hygroscopic weight gain is less than 2% but no less than 0.2%; • Non-hygroscopic or nearly non-hygroscopic: Hygroscopic weight gain is less than 0.2%.
Compound of Formula (I) (Oct. 15, 2021, Nanjing) 03881 Using the Surface Measurement Systems advantage 2, at a temperature of 25° C., and starting at a humidity of 50%, the humidity range was examined from […] to 95%, with increments of 10%. The criterion for evaluation was that the mass change dM/dT at each gradient was less than 0.002%, TMAX was 360 min, and the process was cycled twice.

[2] = Influencing factor stability of crystal forms (light, high temperature, high humidity, 30 days); settings: for change in purity under 60° C. and light: 60° C. and light (4500 Lux); for change in purity under 60° C. and light / physicochemical stability under high humidity: open; for physicochemical stability under high humidity: high humidity conditions of 75% and 92.5%; for crystal form after influencing factor experiments: light, high temperature, high humidity
Description: Each crystal form was spread out in an open exposure setup, and the stability of the samples under conditions of light (4500 Lux), high temperature (40° C., 60° C.), and high humidity (RH 75 RH 92.5%) was examined separately. The sampling inspection period was 30 days.

[3] = Long-term/accelerated stability of crystal forms (25° C. 60% RH and 40° C. 75% RH); settings: for physical and chemical stability, long-term accelerated conditions: 25° C. 60% RH and 40° C. 75% RH, six months
Description: The crystal forms D, E, Q, and U of the compound of formula (I) were respectively placed under conditions of 25° C. with 60% RH and 40° C. with 75% RH to evaluate their stability.

[4] = 92.5% RH, 30 days, open exposure
[5] = light 4500 Lux, 30 days, open exposure

Q: What does the source list for `N#Cc1ccc(N2CCC(Sc3ccc(COc4cccc5c4CN([C@H]4CCC(=O)NC4=O)C5=O)cn3)CC2)c(F)c1` [Crystal form E, (S)-4-(4-((5-(((2-(2,6-dioxopiperidin-3-yl)-1-oxoisoindolin-4-yl)oxy)methyl)pyridin-2-yl)thio)piperidin-1-yl)-3-fluorobenzonitrile]?
A: Hygroscopic weight change 0.0% RH-95.0% RH [1]: 2.24%; Hygroscopic weight change 20% RH-80% RH [1]: 0.84%; Hygroscopicity class (20% RH-80% RH) [1]: (slightly hygroscopic); Crystal form after hygroscopicity test [1]: Untransformed; Color and character ([2]; 40° C., 9 days, open exposure): White solid; Purity % ([2]; 40° C., 9 days, open exposure, listed as Free crystal form E): 97.4%; Color and character ([2]; 40° C., 15 days, open exposure): White solid; Purity % ([2]; 40° C., 15 days, open exposure, listed as Free crystal form E): 97.0%; Color and character ([2]; 40° C., 30 days, open exposure): White solid; Purity % ([2]; 40° C., 30 days, open exposure, listed as Free crystal form E): 96.4%; change in purity under 60° C. and light ([2]; 30 days): slight decrease in purity; Color and character ([2]; 60° C., 9 days, open exposure): White solid; Purity % ([2]; 60° C., 9 days, open exposure, listed as Free crystal form E): 96.7%; Color and character ([2]; 60° C., 15 days, open exposure): White solid; Purity % ([2]; 60° C., 15 days, open exposure, listed as Free crystal form E): 95.9%; Color and character ([2]; 60° C., 30 days, open exposure): White solid; Purity % ([2]; 60° C., 30 days, open exposure, listed as Free crystal form E): 94.6%; Color and character ([2]; 75% RH, 9 days, open exposure): White solid; Purity % ([2]; 75% RH, 9 days, open exposure, listed as Free crystal form E): 97.9%; Color and character ([2]; 75% RH, 15 days, open exposure): White solid; Purity % ([2]; 75% RH, 15 days, open exposure, listed as Free crystal form E): 97.9%; Color and character ([2]; 75% RH, 30 days, open exposure): White solid; Purity % ([2]; 75% RH, 30 days, open exposure, listed as Free crystal form E): 97.8%; Color and character ([2]; 92.5% RH, 9 days, open exposure): White solid; Purity % ([2]; 92.5% RH, 9 days, open exposure, listed as Free crystal form E): 97.9%; Color and character ([2]; 92.5% RH, 15 days, open exposure): White solid; Purity % ([2]; 92.5% RH, 15 days, open exposure, listed as Free crystal form E): 97.8%; Color and character [2, 4]: White solid; Purity % ([2]; 92.5% RH, 30 days, open exposure, listed as Free crystal form E): 97.8%; Color and character ([2]; Onset, 0 days): White solid; Purity % ([2]; Onset, 0 days, listed as Free crystal form E): 97.9%; physicochemical stability under high humidity ([2]; 30 days): good physicochemical stability; Color and character ([2]; light 4500 Lux, 9 days, open exposure): White solid; Purity % ([2]; light 4500 Lux, 9 days, open exposure, listed as Free crystal form E): 97.7%; Color and character ([2]; light 4500 Lux, 15 days, open exposure): White solid; Purity % ([2]; light 4500 Lux, 15 days, open exposure, listed as Free crystal form E): 97.4%; Color and character [2, 5]: White solid; Purity % ([2]; light 4500 Lux, 30 days, open exposure, listed as Free crystal form E): 94.9%; crystal form after influencing factor experiments ([2]; 30 days): remain unchanged; physical and chemical stability, long-term accelerated conditions [3]: good physical and chemical stability; Purity % 1 month ([3]; 25° C., 60% RH): 97.9%; Purity % 2 months ([3]; 25° C., 60% RH): 97.8%; Purity % 3 months ([3]; 25° C., 60% RH): 97.8%; Purity % 1 month ([3]; 40° C., 75% RH): 97.8%; Purity % 2 months ([3]; 40° C., 75% RH): 97.8%; Purity % 3 months ([3]; 40° C., 75% RH): 97.8%; Purity % 6 months ([3]; 40° C., 75% RH): 97.4%; Purity % Onset [3]: 97.9%

Q: For `N#Cc1ccc(N2CCC(Sc3ccc(COc4cccc5c4CN([C@H]4CCC(=O)NC4=O)C5=O)cn3)CC2)c(F)c1` [Crystal form Q, (S)-4-(4-((5-(((2-(2,6-dioxopiperidin-3-yl)-1-oxoisoindolin-4-yl)oxy)methyl)pyridin-2-yl)thio)piperidin-1-yl)-3-fluorobenzonitrile], which “Hygroscopic weight change 0.0% RH-95.0% RH” value [1] is on record?
A: Its value is 0.67%.

Q: And the “Hygroscopic weight change 20% RH-80% RH” value [1]?
A: Its value is 0.24%.

Q: And the “Hygroscopicity class (20% RH-80% RH)” value [1]?
A: The value was “(slightly hygroscopic)”.

Q: And the “Crystal form after hygroscopicity test” value [1]?
A: The value was “Untransformed”.

Q: What about the Color and character ([2]; 40° C., 7 days, open exposure) of the same compound?
A: The Color and character was “White solid”.

Q: What about the Purity % ([2]; 40° C., 7 days, open exposure) of the same compound?
A: Its Purity % is 99.5%.

Q: What about the Color and character ([2]; 40° C., 14 days, open exposure) of the same compound?
A: The Color and character was “White solid”.

Q: And the Purity % ([2]; 40° C., 14 days, open exposure, listed as Free crystal form Q)?
A: Its Purity % is 99.4%.

Q: And the Color and character ([2]; 40° C., 30 days, open exposure)?
A: The Color and character was “White solid”.

Q: What about the Purity % ([2]; 40° C., 30 days, open exposure, listed as Free crystal form Q) of the same compound?
A: The Purity % was 99.1%.

Q: And the “change in purity under 60° C. and light” value ([2]; 30 days)?
A: The value was “slight decrease in purity”.

Q: And the Color and character ([2]; 60° C., 7 days, open exposure)?
A: The Color and character was “White solid”.

Q: What about the Purity % ([2]; 60° C., 7 days, open exposure, listed as Free crystal form Q) of the same compound?
A: The Purity % was 99.3%.

Q: What about the Color and character ([2]; 60° C., 14 days, open exposure) of the same compound?
A: Its Color and character is “White solid”.

Q: And the Purity % ([2]; 60° C., 14 days, open exposure, listed as Free crystal form Q)?
A: Its Purity % is 98.9%.

Q: What about the Color and character ([2]; 60° C., 30 days, open exposure) of the same compound?
A: Its Color and character is “White solid”.

Q: And the Purity % ([2]; 60° C., 30 days, open exposure, listed as Free crystal form Q)?
A: Its Purity % is 98.5%.

Q: And the Color and character ([2]; 75% RH, 7 days, open exposure)?
A: The Color and character was “White solid”.

Q: What about the Purity % ([2]; 75% RH, 7 days, open exposure) of the same compound?
A: The Purity % was 99.6%.

Q: What about the Color and character ([2]; 75% RH, 14 days, open exposure) of the same compound?
A: Its Color and character is “White solid”.

Q: And the Purity % ([2]; 75% RH, 14 days, open exposure, listed as Free crystal form Q)?
A: Its Purity % is 99.6%.

Q: And the Color and character ([2]; 75% RH, 30 days, open exposure)?
A: Its Color and character is “White solid”.

Q: What about the Purity % ([2]; 75% RH, 30 days, open exposure, listed as Free crystal form Q) of the same compound?
A: Its Purity % is 99.6%.

Q: And the Color and character ([2]; 92.5% RH, 14 days, open exposure)?
A: The Color and character was “White solid”.

Q: What about the Purity % ([2]; 92.5% RH, 14 days, open exposure, listed as Free crystal form Q) of the same compound?
A: The Purity % was 99.6%.

Q: And the Color and character [2, 4]?
A: Its Color and character is “White solid”.

Q: And the Purity % ([2]; 92.5% RH, 30 days, open exposure, listed as Free crystal form Q)?
A: The Purity % was 99.5%.

Q: What about the Color and character ([2]; Onset, 0 days) of the same compound?
A: The Color and character was “White solid”.

Q: What about the Purity % ([2]; Onset, 0 days, listed as Free crystal form Q) of the same compound?
A: Its Purity % is 99.6%.

Q: And the “physicochemical stability under high humidity” value ([2]; 30 days)?
A: Its value is “good physicochemical stability”.

Q: And the Color and character ([2]; light 4500 Lux, 7 days, open exposure)?
A: The Color and character was “White solid”.

Q: What about the Purity % ([2]; light 4500 Lux, 7 days, open exposure, listed as Free crystal form Q) of the same compound?
A: The Purity % was 99.5%.

Q: What about the Color and character ([2]; light 4500 Lux, 14 days, open exposure) of the same compound?
A: Its Color and character is “White solid”.

Q: What about the Purity % ([2]; light 4500 Lux, 14 days, open exposure, listed as Free crystal form Q) of the same compound?
A: Its Purity % is 98.8%.

Q: What about the Color and character [2, 5] of the same compound?
A: The Color and character was “White solid”.

Q: What about the Purity % ([2]; light 4500 Lux, 30 days, open exposure, listed as Free crystal form Q) of the same compound?
A: The Purity % was 93.9%.

Q: And the “crystal form after influencing factor experiments” value ([2]; 30 days)?
A: Its value is “remain unchanged”.

Q: What about the “physical and chemical stability, long-term accelerated conditions” value [3] of the same compound?
A: Its value is “good physical and chemical stability”.

Q: What about the “Purity % 1 month” value ([3]; 25° C., 60% RH) of the same compound?
A: The value was 99.5%.

Q: What about the “Purity % 2 months” value ([3]; 25° C., 60% RH) of the same compound?
A: Its value is 99.5%.

Q: And the “Purity % 3 months” value ([3]; 25° C., 60% RH)?
A: The value was 99.5%.

Q: What about the “Purity % 1 month” value ([3]; 40° C., 75% RH) of the same compound?
A: The value was 99.5%.

Q: And the “Purity % 2 months” value ([3]; 40° C., 75% RH)?
A: Its value is 99.4%.

Q: What about the “Purity % 3 months” value ([3]; 40° C., 75% RH) of the same compound?
A: The value was 99.4%.

Q: And the “Purity % 6 months” value ([3]; 40° C., 75% RH)?
A: The value was 99.1%.

Q: What about the “Purity % Onset” value [3] of the same compound?
A: The value was 99.6%.
